Data as given in patent US20130065922A1, “NOVEL AMIDES AS FUNGICIDES” (priority 2010, published 2013).
Like-named read-outs stand apart in the source and are kept apart here.

Tests used:
[1] = system: Plasmopara viticola; assay: whole plant or invertebrate; type: in vivo; conditions: foliar, read-out: inhibit fungal infestation
[2] = system: Blumeria graminis f. Sp. tritici (Erysiphe graminis f. Sp. tritici); assay: Blumeria graminis f. Sp. tritici (Erysiphe graminis f. Sp. tritici)/Wheat/Leaf Disc Preventative (Powdery Mildew on Wheat); type: in vivo; conditions: foliar, read-out: inhibit fungal infestation
[3] = system: Pythium ultimum; assay: Pythium ultimum/Liquid Culture (Seedling Damping Off); type: cell-based; conditions: Globisporangium ultimum, read-out: inhibit fungal infestation
[4] = system: Phytophthora infestans; assay: whole plant or invertebrate; type: in vivo; conditions: in Solanum lycopersicum, foliar, read-out: inhibit fungal infestation
[5] = 200 ppm, wheat leaf segments cv. Kanzler, preventative, 6-8 days after application, untreated control infected to over 80%
[6] = 200 ppm, liquid culture (PDB), 24° C., growth inhibition photometrically 2-3 days after application

| SMILES | melting point [°C] | inhibition at 200 ppm [2, 5] [%] | further results |
| --- | --- | --- | --- |
| COC(Oc1ccc2ncc(SC)cc2c1)C(=O)NC1(C)CCC1 (stereo not drawn) | 100 to 102 | – | – |
| COC(Oc1cc(Cl)c2ncc(SC)cc2c1)C(=O)NC1CCC1 (stereo not drawn) | 128 to 130 | – | – |
| CSc1cnc2ccc(OC(SC)C(=O)NC(C)(C)CCF)cc2c1 (stereo not drawn) [Compound 67, N-(3-Fluoro-1,1-dimethyl-propyl)-2-methylsulfanyl-2-(3-methylsulfanyl-quinolin-6-yloxy)-acetamide] | – | ≥ 80 | inhibition at 200 ppm [1]: ≥ 80% |
| CCOc1cnc2c(C)cc(OC(SC)C(=O)NC(C)(C)C)cc2c1 (stereo not drawn) [Compound 20, N-tert-Butyl-2-(3-ethoxy-8-methyl-quinolin-6-yloxy)-2-methylsulfanyl-acetamide] | 181 to 183 | – | inhibition at 200 ppm [3, 6]: ≥ 80% |
| CC#CC(C)(C)NC(=O)C(OC)Oc1cc(Cl)c2ncc(SC)cc2c1 (stereo not drawn) [Compound 48, 2-(8-Chloro-3-methylsulfanyl-quinolin-6-yloxy)-N-(1,1-dimethyl-but-2-ynyl)-2-methoxy-acetamide] | 90 to 92 | – | inhibition at 200 ppm [1]: ≥ 80% |
| C#CC(C)(C)NC(=O)C(CC)Oc1cc(Cl)c2ncc(SC)cc2c1 (stereo not drawn) | 140 to 142 | – | – |
| CO/N=C/C(C)(C)NC(=O)C(OC)Oc1ccc2ncc(SC)cc2c1 (stereo not drawn) [Compound 56, 2-Methoxy-N-(2-methoxyimino-1,1-dimethyl-ethyl)-2-(3-methylsulfanyl-quinolin-6-yloxy)-acetamide] | 98 to 100 | – | inhibition at 200 ppm [4]: ≥ 80%; inhibition at 200 ppm [3, 6]: ≥ 80% |
| COC(Oc1ccc2ncc(SC)cc2c1)C(=O)NC(C)(C)C (stereo not drawn) [Compound 60, N-tert-Butyl-2-methoxy-2-(3-methylsulfanyl-quinolin-6-yloxy)-acetamide] | 119 to 121 | ≥ 80 | – |
| CO/N=C/C(C)(C)NC(=O)C(OC)Oc1cc(Cl)c2ncc(SC)cc2c1 (stereo not drawn) [Compound 47, 2-(8-Chloro-3-methylsulfanyl-quinolin-6-yloxy)-2-methoxy-N-(2-methoxyimino-1,1-dimethyl-ethyl)-acetamide] | 121 to 123 | ≥ 80 | inhibition at 200 ppm [1]: ≥ 80% |
| CCC(Oc1cc(Cl)c2ncc(SC)cc2c1)C(=O)NC(C)(C)/C=N/OC (stereo not drawn) [Compound 39, 2-(8-Chloro-3-methylsulfanyl-quinolin-6-yloxy)-N-(2-methoxyimino-1,1-dimethyl-ethyl)-butyramide] | 119 to 121 | – | inhibition at 200 ppm [1]: ≥ 80% |
| COC(Oc1cc(C)c2ncc(SC)cc2c1)C(=O)NC1CCC1 (stereo not drawn) | 132 to 134 | – | – |
| COC(Oc1cc(C)c2ncc(SC)cc2c1)C(=O)NC(C)(C)C (stereo not drawn) | 146 to 148 | – | – |
| COCC#CC(C)(C)NC(=O)C(OC)Oc1ccc2ncc(SC)cc2c1 (stereo not drawn) [Compound 58, 2-Methoxy-N-(4-methoxy-1,1-dimethyl-but-2-ynyl)-2-(3-methylsulfanyl-quinolin-6-yloxy)-acetamide] | 74 to 76 | – | inhibition at 200 ppm [2]: ≥ 80% |
| COCC(C)(C#N)NC(=O)C(OC)Oc1cc(Cl)c2ncc(SC)cc2c1 (stereo not drawn) | 90 to 93 | – | – |
| CO/N=C/C(C)(C)NC(=O)C(Oc1cc(Cl)c2ncc(SC)cc2c1)SC (stereo not drawn) [Compound 31, 2-(8-Chloro-3-methylsulfanyl-quinolin-6-yloxy)-N-(2-methoxyimino-1,1-dimethyl-ethyl)-2-methylsulfanyl-acetamide] | 168 to 170 | – | inhibition at 200 ppm [1]: ≥ 80%; inhibition at 200 ppm [3, 6]: ≥ 80% |
| COC(Oc1cc(Cl)c2ncc(SC)cc2c1)C(=O)NC(C)C (stereo not drawn) [Compound 52] | 115 to 118 | ≥ 80 | – |
| CCC(Oc1cc(Cl)c2ncc(SC)cc2c1)C(=O)NC(C)C (stereo not drawn) | 143 to 145 | – | – |
| CC#CC(C)(C)NC(=O)C(Oc1cc(C)c2ncc(OCC)cc2c1)SC (stereo not drawn) [Compound 24, N-(1,1-Dimethyl-but-2-ynyl)-2-(3-ethoxy-8-methyl-quinolin-6-yloxy)-2-methylsulfanyl-acetamide] | 137 to 139 | – | inhibition at 200 ppm [1]: ≥ 80%; inhibition at 200 ppm [2]: ≥ 80%; inhibition at 200 ppm [3]: ≥ 80% |
| COC(Oc1cc(Cl)c2ncc(SC)cc2c1)C(=O)NC(C)(C)C (stereo not drawn) | 125 to 127 | – | – |
| C#CC(C)(C)NC(=O)C(OC)Oc1ccc2ncc(OC)cc2c1 (stereo not drawn) [Compound 9, N-(1,1-Dimethyl-prop-2-ynyl)-2-methoxy-2-(3-methoxy-quinolin-6-yloxy)-acetamide] | 124 to 127 | ≥ 80 | – |
| CCC(Oc1ccc2ncc(OC)cc2c1)C(=O)NC(C)(C)C (stereo not drawn) [Compound 12, N-tert-Butyl-2-(3-methoxy-quinolin-6-yloxy)-butyramide] | 131 to 133 | – | inhibition at 200 ppm [4]: ≥ 80%; inhibition at 200 ppm [3, 6]: ≥ 80% |
| CCC(Oc1ccc2ncc(OC)cc2c1)C(=O)NC(C)(C)/C=N/OC (stereo not drawn) [Compound 6, N-(2-Methoxyimino-1,1-dimethyl-ethyl)-2-(3-methoxy-quinolin-6-yloxy)-butyramide] | 87 to 89 | ≥ 80 | inhibition at 200 ppm [3, 6]: ≥ 80% |

| SMILES | melting point [°C] | inhibition at 200 ppm [2, 5] [%] | further results |
| --- | --- | --- | --- |
| CCOCC(C)(C)NC(=O)C(Oc1ccc2ncc(SC)cc2c1)SC (stereo not drawn) [Compound 66, N-(2-Ethoxy-1,1-dimethyl-ethyl)-2-methylsulfanyl-2-(3-methylsulfanyl-quinolin-6-yloxy)-acetamide] | – | ≥ 80 | – |
| COc1cnc2ccc(OC(SC)C(=O)NC(C)(C)C)cc2c1 (stereo not drawn) [Compound 2, N-tert-Butyl-2-(3-methoxy-quinolin-6-yloxy)-2-methylsulfanyl-acetamide] | 110 to 115 | ≥ 80 | inhibition at 200 ppm [4]: ≥ 80%; inhibition at 200 ppm [3, 6]: ≥ 80% |
| C#CC(C)(C)NC(=O)C(OC)Oc1ccc2ncc(SC)cc2c1 (stereo not drawn) | 123 to 125 | – | – |
| CCC(Oc1cc(Cl)c2ncc(SC)cc2c1)C(=O)NC(C)(C)C (stereo not drawn) | 134 to 136 | – | – |
| C#CC(C)(C)NC(=O)C(OC)Oc1cc(Cl)c2ncc(SC)cc2c1 (stereo not drawn) | 116 to 118 | – | – |
| COCC#CC(C)(C)NC(=O)C(OC)Oc1cc(Cl)c2ncc(SC)cc2c1 (stereo not drawn) [Compound 49, 2-(8-Chloro-3-methylsulfanyl-quinolin-6-yloxy)-2-methoxy-N-(4-methoxy-1,1-dimethyl-but-2-ynyl)-acetamide] | 85 to 87 | – | inhibition at 200 ppm [1]: ≥ 80% |
| CCC(Oc1cc(C)c2ncc(SC)cc2c1)C(=O)NC1CCC1 (stereo not drawn) | 136 to 138 | – | – |
| CCC(Oc1cc(C)c2ncc(SC)cc2c1)C(=O)NC(C)(C)C (stereo not drawn) | 119 to 121 | – | – |
| CCC(Oc1ccc2ncc(OC)cc2c1)C(=O)NC(C)(C#N)COC (stereo not drawn) | 122 to 124 | – | – |
| COCC(C)(C#N)NC(=O)C(Oc1ccc2ncc(OC)cc2c1)SC (stereo not drawn) [Compound 3, N-(1-Cyano-2-methoxy-1-methyl-ethyl)-2-(3-methoxy-quinolin-6-yloxy)-2-methylsulfanyl-acetamide] | 75 to 77 | ≥ 80 | inhibition at 200 ppm [3, 6]: ≥ 80% |
| C#CC(C)(C)NC(=O)C(CC)Oc1ccc2ncc(OC)cc2c1 (stereo not drawn) [Compound 7, N-(1,1-Dimethyl-prop-2-ynyl)-2-(3-methoxy-quinolin-6-yloxy)-butyramide] | 109 to 112 | ≥ 80 | inhibition at 200 ppm [4]: ≥ 80%; inhibition at 200 ppm [3, 6]: ≥ 80% |
| CCC(Oc1cc(C)c2ncc(SC)cc2c1)C(=O)NC(C)C (stereo not drawn) | 132 to 134 | – | – |
| C#CC(C)(C)NC(=O)C(OC)Oc1cc(C)c2ncc(SC)cc2c1 (stereo not drawn) | 124 to 127 | – | – |
| CO/N=C/C(C)(C)NC(=O)C(Oc1ccc2ncc(OC)cc2c1)SC (stereo not drawn) [Compound 1, N-(2-Methoxyimino-1,1-dimethyl-ethyl)-2-(3-methoxy-quinolin-6-yloxy)-2-methylsulfanyl-acetamide] | 122 to 124 | ≥ 80 | inhibition at 200 ppm [4]: ≥ 80%; inhibition at 200 ppm [3, 6]: ≥ 80% |
| CO/N=C/C(C)(C)NC(=O)C(OC)Oc1ccc2ncc(OC)cc2c1 (stereo not drawn) [Compound 8, 2-Methoxy-N-(2-methoxyimino-1,1-dimethyl-ethyl)-2-(3-methoxy-quinolin-6-yloxy)-acetamide] | 100 to 106 | ≥ 80 | inhibition at 200 ppm [4]: ≥ 80%; inhibition at 200 ppm [3, 6]: ≥ 80% |
| CO/N=C/C(C)(C)NC(=O)C(OC)Oc1cc(C)c2ncc(SC)cc2c1 (stereo not drawn) [Compound 43, 2-Methoxy-N-(2-methoxyimino-1,1-dimethyl-ethyl)-2-(8-methyl-3-methylsulfanyl-quinolin-6-yloxy)-acetamide] | 109 to 111 | – | inhibition at 200 ppm [1]: ≥ 80% |
| COC(Oc1ccc2ncc(SC)cc2c1)C(=O)NC1CCC1 (stereo not drawn) [Compound 61, N-Cyclobutyl-2-methoxy-2-(3-methylsulfanyl-quinolin-6-yloxy)-acetamide] | 80 to 82 | ≥ 80 | – |
| CC#CC(C)(C)NC(=O)C(OC)Oc1ccc2ncc(SC)cc2c1 (stereo not drawn) [Compound 57, N-(1,1-Dimethyl-but-2-ynyl)-2-methoxy-2-(3-methylsulfanyl-quinolin-6-yloxy)-acetamide] | 63 to 65 | – | inhibition at 200 ppm [2]: ≥ 80% |
| CCC(Oc1ccc2ncc(SC)cc2c1)C(=O)NC(C)C (stereo not drawn) [Compound 28, N-Isopropyl-2-(3-methylsulfanyl-quinolin-6-yloxy)-butyramide] | 112 to 115 | – | inhibition at 200 ppm [3, 6]: ≥ 80% |
| COC(Oc1cc(Cl)c2ncc(SC)cc2c1)C(=O)NC1(C)CCC1 (stereo not drawn) | 113 to 115 | – | – |
| CC#CC(C)(C)NC(=O)C(OC)Oc1cc(C)c2ncc(SC)cc2c1 (stereo not drawn) [Compound 46, N-(1,1-Dimethyl-but-2-ynyl)-2-methoxy-2-(8-methyl-3-methylsulfanyl-quinolin-6-yloxy)-acetamide] | 102 to 104 | – | inhibition at 200 ppm [1]: ≥ 80% |
